We go through five compounds from US6338963B1, “Use of carbon monoxide dependent guanylyl cyclase modifiers to stimulate neuritogenesis” (NeoTherapeutics, Inc., priority 1994, dated 2002).

Marks after values point to notes of the source that are not given here.

Test [1] relates to cGMP levels in PC12 cells. Description: cGMP levels in PC12 cells (radioimmunoassay). In kind it is cell-based, rat. As to conditions: NGF-primed PC12 cells. The protocol:
Initially, PC-12 cells were primed with 40 ng/ml NGF for 3 days in low serum medium (1.5% horse serum+5% fetal calf serum). Cells were seeded onto assay plates in low serum medium containing 40 ng/ml NGF and incubated for 1 hour. The medium was changed to low arginine medium (80 μM) with no serum and NGF and papaverine ([…]) where indicated. Test compounds were added for the indicated time and the reaction was stopped by adding 5% TCA containing 10,000 dpm of ^3H-cGMP. cGMP was assayed by the radioimmunoassay method of Maurice (Mol. Pharmacol. 37: 671-681, 1990). TCA was purified by adding powdered charcoal (5 g) and filtering the mixture through Whatman #1 paper. This removed contaminants in the TCA that otherwise interfere with the radioimmunoassay (RIA) of cGMP.
It was necessary to purify the cGMP from cAMP and other contaminants before radioimmunoassay since these other materials can interfere with the assay. Briefly, the TCA solution was applied to Dowex columns (50W-8X, 200-400 mesh) and eluted. A neutral alumina column was then placed under each Dowex column. The cGMP was eluted from the Dowex columns into neutral alumina columns by adding 4 mL of 0.05 M HCl to each Dowex column. The neutral alumina columns were then sequentially rinsed with 2 ml of HCl, 4 mL water and finally with 0.2 M sodium acetate (pH 6.2). The cGMP collected for the RIA eluted in 1 ML of sodium acetate with a recovery between 50-65%. The cGMP was assayed using a Dupont RIA kit.

Test [2] deals with cultured neurons from rat cerebral cortex. Nature of the test: NMDA-induced toxicity in cultured rat cortical neurons, astrocyte conditioned medium. In kind it is cell-based. The protocol:
In these experiments, cultured neurons were prepared from rat cerebral cortex. In these cultures the NMDA pulse (100 μM for 10 min) provoked about 80% neuronal death (measured by Trypan blue cell staining or LDH activity). Separately, cultured astrocytes were treated for 6 hours with AIT-082. Then, the medium containing the drug was replaced with fresh medium without the drug and the astrocyte cultures were maintained in this medium for the next 24 hours. This medium represented the CM and was added to neurons soon after the toxic pulse with NMDA. The addition of CM partly counteracted the toxic effects caused by NMDA, reducing the neuronal damage by about 50%. If the medium was boiled for 20 min at 100° C. prior to addition to NMDA-damaged neurons, it completely lost the protective activity. […] To verify whether the neuroprotection caused by AIT-082 was ascribable to the production of TGFβ2 or NGF, antibodies to TGFβ2 or to NGF (100 ng/ml) were added together with CM.
Conversely, when DPCPX (100 nm) was added to astrocyte cultures together with AIT-082, the neuroprotective effect of the resulting CM deriving from the culture of the astrocytes with AIT-082 was reduced by only 20%, as compared to the neuroprotective effect of CM derived from astrocytes exposed to AIT-082 alone (assumed as equal to 100%).

The subject of a further test is NGF. Description: NGF release from rat cultured astrocytes (ELISA). Format: cell-based. As to conditions: for effect of inhibitor on AIT-082-induced accumulation of NGF: 100 nm wortmannin, 10 μM PD098,059 or 500 ng/ml CHX added 30 min before and kept 24 hours with 100 μM AIT-082. The protocol: The dose response for AIT-082 and guanosine on nerve growth factor and S100β protein release from rat culture astrocytes is shown in FIG. 30. NGF was assayed by a double-site ELISA, using a monoclonal anti-NGF antibody, coupled or not to β-galactosidase according to the method of I. D. Laviada et al., “Phosphatidylcholine-Phospholipase C Mediates the Induction of Nerve Growth Factor in Cultured Glial Cells,” FEBS Lett. 364: 301-304 (1995).
(§1) The NGF and S100β protein were measured by removing the cultured medium for the ELISA assays at each indicated time point.
(§2) NGF and TGFβ2 levels were assayed in the culture medium of the astrocytes by specific ELISA assays using kits from Roche (Germany) and Promega (USA) respectively. NGF basal levels were 56.3±3.2 pg/ml. TGFβ2 levels were 9.1±0.06 pg/ml.
(§3) In FIG. 61, the dose-response curves of NGF and TGFβ2 release from rat cultured astrocytes as the result of exposure to AIT-082 are shown.
On the technique in general: ELISA stands for enzyme-linked immunosorbent assay.

The test system of another test is TGFβ2. Description: TGFβ2 release from rat cultured astrocytes (ELISA). As to conditions: 100 nm wortmannin, 10 μM PD098,059 or 500 ng/ml CHX added 30 min before and kept 24 hours with 100 μM AIT-082. In kind it is cell-based. The protocol:
as §2, §3

The next test deals with S100β protein. Description: S100β protein release from rat cultured astrocytes (ELISA). As to conditions: cycloheximide 0.5 μg/ml, AIT-082 100 μ. In kind it is cell-based. The protocol:
The S100β protein was measured by using an ELISA as described in A. Aurell et al., “The S-100 Protein in Cerebrospinal Fluid: A Simple ELISA Method,” J.Neurol. Sci. 89: 157-164 (1989).
as §1

For test [3], the system named is Swiss Webster mice. Description: Win-shift T-maze memory test, Swiss Webster mice. Format: in vivo. As to conditions: 90-second inter-trial interval, PHY 0.125 mg/kg i.p. The protocol: Male Swiss Webster mice six months (young adult) and eleven months (old) of age, obtained from the National Institute on Aging, were maintained in individual cages, on a […] light/dark cycle with continuous access to water. Food was limited so that the mice stabilized at 80% of free feeding weight. Mice were weighed and handled daily for one week. The win-shift model was run as described in the literature and consists of a T-maze in which the correct response alternates after each correct trial. The interval between trials is varied and allows for the determination of the longest period between trials that a subject can remember the correct response on the previous trial. This allows the measure of the duration of the memory trace. […] The reward goal box is alternated after each correct trial. Ten trials per mouse are run each day. […] The latency time to leave the start box is recorded as a measure of motivation, the running time (the time from leaving the start box to reaching the goal box) is recorded as a measure of performance, and the number of correct responses as a measure of memory.
The drugs used in this example are 4-((3-(1,6-dihydro-6-oxo-9-purin-9-yl)-1-oxopropyl)amino) benzoic acid (AIT-082), as an exemplary potassium salt, tacrine hydrochloride (tetrahydroaminoacridine, THA, Sigma Chemical Co., St. Louis, Mo.), and physostigmine, hemisulfate salt (PHY, Sigma Chemical Co., St. Louis, Mo.). The drugs were dissolved in saline and prepared fresh daily. All injections were made at a volume of 0.1 ml/10 grams body weight. When testing drug effects, intraperitoneal (i.p.) injections of AIT-082 or THA were made one hour prior to the start of testing. Due to its shorter duration of action, PHY was injected 30 minutes prior to testing. Control subjects receive a similar injection of saline (vehicle).
(§4) To determine the duration of the memory trace, subjects were administered drug or saline and 30 minutes (PHY) or 1 hour (AIT-082 or THA) later they were given a single reference run with the milk reward in both goal boxes. After the indicated inter-trial delay, subjects were returned to the start box and given the first test trial with the milk reward only in the goal box opposite to the one entered on the previous correct trial. The subjects were given 10 trials with the reward alternating only after correct responses.
To determine if tolerance to the biological effects of AIT-082 developed, drug or saline was administered daily for 18 days prior to the testing in the standard win-shift paradigm.

The subject of test [4] is C57BL/6 mice. Nature of the test: Win-shift duration of memory trace, C57BL/6 mice. In kind it is in vivo. As to conditions: for Correct (Mean score ± S.E.) / No. above chance/Total #: Physostigmine 0.125 mg/kg. On the procedure: as §4
Previous work has established that normal adult Swiss Webster mice have a memory trace duration of 60 seconds in the win-shift paradigm which may be increased by the administration of AIT-082.

Test [5] concerns Swiss Webster mice. Description: Win-shift test, Swiss Webster mice with age-induced memory deficits. In kind it is in vivo. As to conditions: PHY 0.125 mg/kg. The protocol:
Twelve-month old male Swiss Webster mice were screened for performance in the win-shift foraging test. Subjects were tested at various time delays, beginning at 10 seconds and increasing the inter-trial time interval to 30, 60, 90 and 120 seconds.
Subjects with severe impairment could not remember the correct response at 10 seconds while subjects with mild deficit could remember the correct response with a 30 second inter-trial interval but not at 60 seconds. Subjects with a moderate deficit could remember the correct response with a 10 second inter-trial interval but not […] at 30 seconds. Thus, the win-shift model can detect age-induced impairments in working memory. As will be appreciated by those skilled in the art, this observation is important since it provides the ability to use age-matched subjects with varying degrees of impairment for evaluation of potential therapeutic agents.
Following the establishment of a baseline, six subjects in each of the three groups were treated with AIT-82 (30 mg/kg, one hour before testing) or physostigmine (0.125 mg/kg, 30 minutes before testing) using the win-shift foraging test. The results are presented in Table L directly below and graphically represented in FIG. 9.

The test system of test [6] is C57BL/6 mice. Description: Win-shift test, C57BL/6 mice with age-induced memory deficits. In kind it is in vivo. As to conditions: for subjects performing significantly above chance/total number of subjects: PHY 0.125 mg/kg. On the procedure:
Twelve-month old male C57BL/6 mice were screened for performance in the win-shift foraging test. Subjects were tested at various inter-trial time intervals. Subjects who could not perform to criteria (>60% correct) at 10 seconds delay were classified as having a severe deficit. Subjects who performed to criteria at 10 seconds but not at 30 seconds were classified as having a moderate degree of deficit and subjects who performed to criteria at 30 seconds but not at 60 seconds were classified as having mild deficit. As in Example 21, subjects in each group were treated with either AIT-082 or PHY to determine the extent to which the working memory trace was prolonged. The results are presented in Table M directly below and graphically represented in FIG. 10.

The mark [7] stands for this setting: Moderate deficit, interval 30 sec.
Where [8] appears, read: Moderate deficit, interval 60 sec.
Where [9] appears, read: Severe deficit, interval <10 sec.

For `CNc1ccc2oc(C[C@H]3O[C@@]4(CC[C@H]3C)O[C@H]([C@H](C)C(=O)c3ccc[nH]3)[C@H](C)C[C@H]4C)nc2c1C(=O)O` [A23187, reference compound], in test [1], the “cGMP in PC12 cells” value is listed as “failed to elicit an increase in cGMP”.
For `CCCn1c(=O)c2[nH]c(C3CCCC3)nc2n(CCC)c1=O` [DPCPX, 8-cyclopentyl-1,3-dipropylxanthine], the “reduction of neuroprotective effect of resulting CM” value in test [2] (DPCPX 100 nm added to astrocyte cultures together with AIT-082) was 20%. In test [2] (DPCPX 100 nm added with CM to injured cortical neurons), the “effect on neuroprotective effect of astrocyte-derived CM” value was “did not modify the neuroprotective effect”.
Turning to `COc1cccc(-c2cc(=O)c3ccccc3o2)c1N` [PD098,059, reference compound], the “effect of inhibitor on AIT-082-induced accumulation of NGF” value with NGF is reported as “partly inhibited”. In addition, the “effect of inhibitor on AIT-082-induced accumulation of TGFβ2” value in the test with TGFβ2 is given as “partly inhibited”.
`C[C@@H]1C[C@@H]([C@H](O)CC2CC(=O)NC(=O)C2)C(=O)[C@@H](C)C1` [cycloheximide, reference compound]: in the test with NGF, the “effect of inhibitor on AIT-082-induced accumulation of NGF” value is listed as “partly inhibited”. For the same compound, the “effect of cycloheximide on AIT-082-evoked release of NGF” value with NGF (cycloheximide 0.5 μg/ml, AIT-082 100 μ) is “abolished the stimulatory effect of AIT-082”. For the same compound, the “effect of cycloheximide on AIT-082-evoked accumulation of S100β protein” value in the test with S100β protein was “only slightly modified”. Besides, the “effect of inhibitor on AIT-082-induced accumulation of TGFβ2” value in the test with TGFβ2 is listed as “partly inhibited”.
With “physostigmine, hemisulfate salt [reference compound]”, in the test with Swiss Webster mice [3], the “Win-shift Memory Test, Correct responses” value is reported as 6.5 Correct responses/10 trials. Further, the “Correct (Mean score ± S.E.)” value in the test on C57BL/6 mice [4] (inter-trial interval 180 sec) turned out to be 65 ± 16; in the test with C57BL/6 mice [4] (inter-trial interval 210 sec), 53 ± 9. In addition, the results for the “No. above chance/Total #” value in the test with C57BL/6 mice [4] (inter-trial interval 180 sec) and in the test with C57BL/6 mice [4] (inter-trial interval 210 sec) were 3/6 and 1/6, respectively. Further, the “duration of the memory trace” value with C57BL/6 mice [4] (physostigmine, untreated 120 seconds) was determined as 180 s. The “subjects performing significantly above chance/total number of subjects” value is reported as 5/6* in the test on Swiss Webster mice [5] (Mild deficit, interval 60 sec); 3/6 with Swiss Webster mice [5] (Mild deficit, interval 90 sec); 2/6 in the test with Swiss Webster mice [5] (Mild deficit, interval 120 sec); 2/6 in the test with Swiss Webster mice [5] (Mild deficit, interval 150 sec); 1/6 with Swiss Webster mice [5] (Mild deficit, interval 180 sec); 0/6 in the test on Swiss Webster mice [5] (Mild deficit, interval 210 sec). Besides, the “subjects performing significantly above chance/total number of subjects” value was 1/6 with Swiss Webster mice [5] (setting [7]); 0/6 in the test on Swiss Webster mice [5] (setting [8]); 0/6 with Swiss Webster mice [5] (setting [9]); 7/8* in the test with C57BL/6 mice [6] (Mild deficit, interval 60 sec); 3/8 in the test on C57BL/6 mice [6] (Mild deficit, interval 90 sec); 2/8 in the test with C57BL/6 mice [6] (Mild deficit, interval 120 sec). In addition, the “subjects performing significantly above chance/total number of subjects” value in the test on C57BL/6 mice [6] (Mild deficit, interval 150 sec) is reported as 2/8; in the test with C57BL/6 mice [6] (Mild deficit, interval 180 sec), 2/8; in the test with C57BL/6 mice [6] (Mild deficit, interval 210 sec) it was 0/8; in the test on C57BL/6 mice [6] (Moderate deficit, interval 10 sec), 6/6; in the test with C57BL/6 mice [6] (setting [7]), 1/6; in the test on C57BL/6 mice [6] (setting [8]), 0/6. Further, the “subjects performing significantly above chance/total number of subjects” value in the test with C57BL/6 mice [6] (setting [9]) is 0/6. Moreover, the prolongation of memory result in the test on C57BL/6 mice [6] (moderate deficit group, PHY) is “ineffective in the moderate group”.
